Columns and labels:
[1] = system: P-glycoprotein (P-gp); assay: P-gp content in MCF-7/ADR cell lysate (human P-gp ELISA kit); format: cell-based; details: for inhibitory effect on the P-gp level: MCF-7/ADR, in words; for inhibition at 48 h, 12.5 µM / inhibition at 48 h, 25 µM / inhibition at 48 h, 50 µM / inhibition at 48 h, 100 µM / IC50 at 48 h: human, MCF-7/ADR cells (cell lysate), MCF-7/ADR cell lysate, ELISA; for inhibition at 48 h, 12.5 µM: Conc. 12.5 (µM); for inhibition at 48 h, 25 µM: Conc. 25 (µM); for inhibition at 48 h, 50 µM: Conc. 50 (µM); for inhibition at 48 h, 100 µM: Conc. 100 (µM)
Procedure: P-glycoprotein (P-gp)-mediated multidrug resistance (MDR) is a phenomenon in which cells become resistant to structurally and mechanistically unrelated drugs, resulting in low intracellular drug concentrations. It is one of the noteworthy problems in malignant tumor clinical therapeutics.
The content of P-gp in the MCF-7/ADR cell lysates after incubation with varying conc. (12.5–100 µM) of tested compounds 4a, 4c, 4d, 4e, 4g and 4i following exposure for 48 hr was determined using a commercial human P-gp (Permeability Glycoprotein) ELISA Kit (MBS2506188, MyBioSource Inc., San Diego, CA, USA). Absorption was recorded at 450 nm with a Spectramax Gemini fluorescence microplate reader (Molecular Devices, Sunnyvale, CA, USA).

[2] = target: T1, P-gp activity (efflux function) (Homo sapiens, UniProt P08183); assay: Rhodamine 123 accumulation assay in MCF-7/ADR cells; format: cell-based; details: 4 h with compound then 5.25 μM Rho123 for 30 min
T1 construct: measuring intracellular accumulation of Rhodamine 123 in MCF-7/ADR cells; endogenous in cells; host or cells: MCF-7/ADR (Adriamycin-resistant human breast cancer cells)
T1 sequence (P08183 whole entry): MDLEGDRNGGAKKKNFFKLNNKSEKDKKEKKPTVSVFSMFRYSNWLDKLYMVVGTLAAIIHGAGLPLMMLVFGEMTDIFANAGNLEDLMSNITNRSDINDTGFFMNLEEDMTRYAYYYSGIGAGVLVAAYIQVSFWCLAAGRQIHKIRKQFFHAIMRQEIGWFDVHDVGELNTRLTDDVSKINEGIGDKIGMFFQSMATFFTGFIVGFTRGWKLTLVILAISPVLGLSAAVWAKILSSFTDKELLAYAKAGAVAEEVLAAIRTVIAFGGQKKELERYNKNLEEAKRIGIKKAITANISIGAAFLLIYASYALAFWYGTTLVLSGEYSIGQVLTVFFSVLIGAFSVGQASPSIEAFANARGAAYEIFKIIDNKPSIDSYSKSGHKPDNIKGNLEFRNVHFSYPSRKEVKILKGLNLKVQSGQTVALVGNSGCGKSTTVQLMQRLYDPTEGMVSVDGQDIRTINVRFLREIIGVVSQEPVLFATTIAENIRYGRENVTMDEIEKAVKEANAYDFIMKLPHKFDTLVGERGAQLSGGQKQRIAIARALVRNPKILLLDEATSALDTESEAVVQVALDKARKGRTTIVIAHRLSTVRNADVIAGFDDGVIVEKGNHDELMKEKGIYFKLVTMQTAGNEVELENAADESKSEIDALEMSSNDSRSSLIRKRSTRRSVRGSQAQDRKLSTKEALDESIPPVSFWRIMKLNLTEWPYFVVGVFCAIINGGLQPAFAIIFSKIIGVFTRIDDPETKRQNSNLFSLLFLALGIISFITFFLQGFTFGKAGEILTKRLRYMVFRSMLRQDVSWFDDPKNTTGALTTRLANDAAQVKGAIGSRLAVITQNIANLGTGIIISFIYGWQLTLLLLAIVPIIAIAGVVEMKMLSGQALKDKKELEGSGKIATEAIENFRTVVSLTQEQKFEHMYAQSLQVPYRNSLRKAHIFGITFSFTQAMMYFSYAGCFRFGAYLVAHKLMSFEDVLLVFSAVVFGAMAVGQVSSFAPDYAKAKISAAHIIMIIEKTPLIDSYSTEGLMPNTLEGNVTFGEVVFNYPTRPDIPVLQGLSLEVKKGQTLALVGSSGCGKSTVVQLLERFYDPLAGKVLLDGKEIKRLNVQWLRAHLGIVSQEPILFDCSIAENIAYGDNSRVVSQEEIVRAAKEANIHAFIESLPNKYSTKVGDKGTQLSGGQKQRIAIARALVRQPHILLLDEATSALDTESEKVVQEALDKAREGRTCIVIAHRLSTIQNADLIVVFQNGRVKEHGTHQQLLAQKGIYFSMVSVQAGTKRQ
Procedure: Furthermore, the reversion of P-gp-mediated multidrug resistance could be achieved by the down-regulation of P-gp expression and/or P-gp efflux function inhibition.
Briefly, resistant cancer cells were harvested, washed twice and counted. […] of each well was measured using a Spectramax Gemini fluorescence microplate reader (Molecular Devices, Sunnyvale, CA, USA). The total content of Rhodamine in each sample was determined by comparison with a Rhodamine standard curve.

[3] = system: MCF-7/ADR cells; assay: Annexin V/PI double staining flow cytometric apoptosis test; format: cell-based, human; details: IC50 value, 24 h
Excerpt: One of the optional mechanisms regarding the lethal action of chemotherapeutic medicines is blocking cell cycle progression, triggering apoptosis with otherwise mutual effect. […] The pivotal relation of the newly synthesized MCF-7/ADR “anticancer drugs” was further evaluated using the Annexin V/PI double staining flow cytometric test. […] In comparison to Doxorubicin’s 30% total apoptosis rate, which was nearly identical to 4a, 4c and 4g, compounds 4d, 4e and 4i were leading with percentages of 41%, 31% and 38%, respectively. Only compounds 4a (8.5%) and 4g (11%) had greater effects on necrosis compared to doxorubicin (5%). Other examined substances caused both early and late apoptosis in all treated cells (Figure 7b). Therefore, MCF-7/ADR cytotoxicity is induced by apoptotic processes, apparently without negative effects on P-gp.
(a) The dot plot of the Annexin V/PI-stained cells, treated with the indicated drugs. […] The data are expressed as the mean ± SD of three independent experiments in triplicate. Significances are shown in comparison to control cells (* p < 0.001). TEXT PRINTED IN THE PICTURE: (a) DOX.: 3.33%; 18.41%; 7.85% | (a) 4a: 8.66%; 18.17%; 4.24% | (a) 4c: 2.74%; 12.73%; 9.11% | (a) 4d: 4.85%; 27.44%; 8.73% | (a) 4e: 5.77%; 9.92%; 15.92% | (a) 4g: 11.04%; 3.94%; 7.38% | (a) 4i: 5.54%; 12.87%; 19.61% DOUBTS OF THE COPYIST ABOUT THIS PICTURE: The quadrant percentages in panel (a) are printed very small and blurred, so 3, 5, 6, 8 and 9 cannot be told apart with certainty. […] They are told apart only by their quadrant in the PI / Annexin V-FITC plot, and are listed upper left, upper right, lower right. / The sample line in each plot reads MCF7/ADR. In the 4g plot it is cut off as 'MCF7/AI'. / The panel 'Cont.' (untreated control: 1.56%, 0.15%, 0.48%) is left out because it is not a substance.

[4] = system: SKOV-3 (ovarian cancer cell line); assay: MTT colorimetric cytotoxicity assay, SKOV-3; format: cell-based, human; details: 24 h incubation, mean ± standard error
Procedure: Three human cancer cell lines, PC-3 (human prostate adenocarcinoma, metastatic), […], were used to test the anti-proliferative activity of β-enaminonitrile (4a–p) using the MTT colorimetric assay at concentrations ranging from 0–100 μM. The representative active cytotoxic substances 4a, 4c, 4d, 4e, 4g, 4i, 4k and 4o were also tested against two normal cell lines, human fetal lung (HFL-1) and human diploid fibroblasts (WI-38), as well as Adriamycin (ADR)-resistant human breast cancer cells (MCF-7/ADR). The reference cytotoxic agents, Vinblastine and Doxorubicin, were used in the tests.
The cytotoxic activity was appraised using the 3-(4,5-dimethylthiazol-2-yl)-2,5-diphenyltetrazolium bromide (MTT) colorimetric assay for the antitumor cell lines, as reported previously, and the ELISA assay for MCF-7/ADR [69].

inhibition at 48 h, 12.5 µM [1] | inhibition at 48 h, 25 µM [1] | inhibition at 48 h, 50 µM [1] | inhibition at 48 h, 100 µM [1] | IC50 at 48 h [1] | IC50 [2] | Structure (SMILES) | inhibitory effect on the P-gp level [1] | necrosis [3] | IC50 ([4]; Homo sapiens, SK-OV-3, 24 h) | IC50 [4] | total apoptosis rate [3]
25% | 37% | 68% | 80% | 32 µM | 23.3 µM | N#CC1=C(N)Oc2ccc3ccc(O)cc3c2C1c1ccc(F)cc1F (centres unmarked) [4a, 3-Amino-1-(2,4-Difluorophenyl)-9-Hydroxy-1H-Benzo[f]chromene-2-Carbonitrile] | strong inhibitory effect | 8.5% | 1400 ± 200 nM | – | –
26% | 37% | 71% | 88% | 30.8 µM | 28.7 µM | N#CC1=C(N)Oc2ccc3ccc(O)cc3c2C1c1cccc(Cl)c1Cl (centres unmarked) [4c, 3-Amino-1-(2,3-Dichlorophenyl)-9-Hydroxy-1H-Benzo[f]chromene-2-Carbonitrile] | strong inhibitory effect | – | – | 4000 ± 600 nM | –
10% | 25% | 43% | 69% | 65.9 µM | 46.6 µM | N#CC1=C(N)Oc2ccc3ccc(O)cc3c2C1c1ccc(Cl)cc1Cl (centres unmarked) [4d, 3-Amino-1-(2,4-Dichlorophenyl)-9-Hydroxy-1H-Benzo[f]chromene-2-Carbonitrile] | almost negligible inhibitory effect | – | 1500 ± 100 nM | – | 41%
36% | 54% | 80% | 91% | 18.7 µM | 14.6 µM | N#CC1=C(N)Oc2ccc3ccc(O)cc3c2C1c1cc(Cl)ccc1Cl (centres unmarked) [4e, 3-Amino-1-(2,5-Dichlorophenyl)-9-Hydroxy-1H-Benzo[f]chromene-2-Carbonitrile] | strong inhibitory effect | – | 1100 ± 400 nM | – | 31%
23% | 34% | 66% | 83% | 34.6 µM | 36.7 µM | N#CC1=C(N)Oc2ccc3ccc(O)cc3c2C1c1ccc(Cl)c(Cl)c1 (centres unmarked) [4g, 3-Amino-1-(3,4-Dichlorophenyl)-9-Hydroxy-1H-Benzo[f]chromene-2-Carbonitrile] | – | 11% | 900 ± 300 nM | – | –
15% | 30% | 48% | 76% | 53.6 µM | 55.3 µM | N#CC1=C(N)Oc2ccc3ccc(O)cc3c2C1c1cc(Br)cc(Br)c1 (centres unmarked) [4i, 3-Amino-1-(3,5-Dibromophenyl)-9-Hydroxy-1H-Benzo[f]chromene-2-Carbonitrile] | almost negligible inhibitory effect | – | 1200 nM | 1100 ± 100 nM | 38%
